The values that follow are results of earlier work, collected in US7014866B2, “High dose solid unit oral pharmaceutical dosage form of amorphous nelfinavir mesylate and process for making same” (Hoffmann-La Roche Inc., priority 2001, dated 2006).

Each structure is given as a SMILES string. Structures can show the parent of a compound that is named as a salt.

The conditions of this series: water at pH less than or equal to 4.

For `Cc1c(O)cccc1C(=O)N[C@@H](CSc1ccccc1)[C@H](O)CN1C[C@H]2CCCC[C@H]2C[C@H]1C(=O)NC(C)(C)C` [Nelfinavir mesylate], the solubility in water entry is on record as “slightly soluble”.
